Results on 1 compound are retold here after article PMC9854566, “Antiamnesic Effects of Feralolide Isolated from Aloe vera Resin Miller against Learning Impairments Induced in Mice” (Antioxidants, 2023).

Test [1] addresses T1, butyrylcholinesterase (BuChE), equine (Equus caballus, UniProt P81908).
T1 construct: gene BCHE
Put plainly: Ellman spectrophotometric assay ([…] nm). The test is classed as biochemical. On the technique in general: In Ellman's method for cholinesterases, released thiocholine reacts with DTNB.

Test [2] deals with acetylcholinesterase (AChE), electric eel, type VI-S (Electrophorus electricus, UniProt O42275). The test is described as follows: Ellman spectrophotometric assay ([…] nm). The test is classed as biochemical.
acetylcholinesterase (AChE), electric eel, type VI-S, sequence (O42275 24-633): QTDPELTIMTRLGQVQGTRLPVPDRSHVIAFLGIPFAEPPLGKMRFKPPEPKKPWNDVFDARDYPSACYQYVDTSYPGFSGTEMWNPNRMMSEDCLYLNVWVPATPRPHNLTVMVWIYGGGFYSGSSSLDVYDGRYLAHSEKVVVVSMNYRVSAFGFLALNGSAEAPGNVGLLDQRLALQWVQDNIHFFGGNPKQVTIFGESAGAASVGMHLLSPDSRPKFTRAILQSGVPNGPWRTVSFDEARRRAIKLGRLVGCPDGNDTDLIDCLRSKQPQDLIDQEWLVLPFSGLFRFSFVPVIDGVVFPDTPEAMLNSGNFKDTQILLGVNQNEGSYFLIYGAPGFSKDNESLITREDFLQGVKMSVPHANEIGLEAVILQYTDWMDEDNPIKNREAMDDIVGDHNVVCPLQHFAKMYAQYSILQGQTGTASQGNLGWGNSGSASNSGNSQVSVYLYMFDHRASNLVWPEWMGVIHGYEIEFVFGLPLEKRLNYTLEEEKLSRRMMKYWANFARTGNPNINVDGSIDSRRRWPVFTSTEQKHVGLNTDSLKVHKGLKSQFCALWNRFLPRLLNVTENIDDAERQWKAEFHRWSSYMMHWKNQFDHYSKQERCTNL

T1 sequence (P81908 whole entry): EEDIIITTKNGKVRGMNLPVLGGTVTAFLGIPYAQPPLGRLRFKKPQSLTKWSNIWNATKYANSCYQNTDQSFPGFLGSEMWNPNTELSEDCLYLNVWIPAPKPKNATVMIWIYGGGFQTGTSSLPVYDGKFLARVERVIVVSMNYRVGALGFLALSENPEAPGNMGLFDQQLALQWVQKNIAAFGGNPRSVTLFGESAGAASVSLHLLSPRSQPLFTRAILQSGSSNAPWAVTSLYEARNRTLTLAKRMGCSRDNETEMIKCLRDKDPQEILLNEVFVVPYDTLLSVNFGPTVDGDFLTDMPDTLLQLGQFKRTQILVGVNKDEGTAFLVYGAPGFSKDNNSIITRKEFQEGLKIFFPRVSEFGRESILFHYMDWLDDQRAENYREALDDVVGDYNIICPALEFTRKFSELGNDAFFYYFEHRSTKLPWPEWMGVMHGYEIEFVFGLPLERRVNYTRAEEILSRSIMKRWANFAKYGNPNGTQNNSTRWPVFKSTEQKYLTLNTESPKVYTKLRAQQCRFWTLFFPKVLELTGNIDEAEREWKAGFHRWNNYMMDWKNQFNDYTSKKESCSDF

For the compound `CC(=O)c1c(O)cc(O)cc1C[C@@H]1Cc2cc(O)cc(O)c2C(=O)O1` [feralolide], the results for the half-inhibitory concentration (IC50) in test [1] and in test [2] were 151 µM and 160 µM, respectively.

The term IC50 denotes the concentration at which inhibition is half-maximal.
